Measured values taken from patent US10618903B2, “Heteroaryl substituted aminopyridine compounds” (BRISTOL-MYERS SQUIBB COMPANY, priority 2015, dated 2020).

How the values were obtained:
[1] = molecular target: IRAK4 (Homo sapiens (Human), UniProt Q9NWZ3); experiment: IRAK4 Inhibition Assay; format: biochemical; conditions: ATP 500 μM; IRAK4 0.6 nM
How it was run: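 Readout: electrophoretic (LabChip) separation of fluorescent peptide substrate from phosphorylated product after EDTA quench. Reactions ran 60 min at room temperature with 0.6 nM IRAK4, 1.5 μM peptide and 500 μM ATP; inhibition referenced to no-enzyme (100%) and vehicle (0%) controls.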

[2] = tested on: IL-6 levels in human whole blood stimulated with a TLR2 agonist; experiment: IRAK4 Whole Blood Assay (lipoteichoic acid/TLR2-stimulated IL-6); format: cell-based; conditions: lipoteichoic acid 10 μg/mL, IL-6 readout
How it was run: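 IL-6 was quantified by cytometric bead assay in supernatants of human blood (ACD-A) stimulated for 5 h with lipoteichoic acid at 10 μg/mL final. Compound exposure preceded stimulation for 60 min at 37 °C, 5% CO2.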

[3] = Caco Permeability Assay; format: in vitro ADME; conditions: human, Caco-2, Caco-2 cells, 3 μM compound

IRAK4, sequence (Q9NWZ3 whole entry): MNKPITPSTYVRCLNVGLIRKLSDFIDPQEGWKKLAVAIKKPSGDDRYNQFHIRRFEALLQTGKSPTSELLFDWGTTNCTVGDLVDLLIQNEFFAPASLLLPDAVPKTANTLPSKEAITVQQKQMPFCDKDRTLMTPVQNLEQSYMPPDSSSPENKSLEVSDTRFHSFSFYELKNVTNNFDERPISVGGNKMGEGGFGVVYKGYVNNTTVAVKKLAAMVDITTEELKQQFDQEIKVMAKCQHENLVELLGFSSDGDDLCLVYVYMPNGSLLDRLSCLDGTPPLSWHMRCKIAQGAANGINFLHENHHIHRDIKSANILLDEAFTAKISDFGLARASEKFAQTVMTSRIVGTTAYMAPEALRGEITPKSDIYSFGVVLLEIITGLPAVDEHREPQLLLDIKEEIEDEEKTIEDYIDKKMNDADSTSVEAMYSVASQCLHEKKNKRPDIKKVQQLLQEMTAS

IC50 [1] | EC50 ([2]; Homo sapiens) | Papp at 2 h, 3 µM [3] | EC50 [2] | Compound
2 nM | 1080 nM | 8.2 ×10⁻⁶ cm/s | – | CC(C)(O)[C@H](F)CNC(=O)c1cnc(-c2cnc3cc(Cl)cnn23)cc1NC1CCOCC1 [Example 143, (R)-6-(7-chloroimidazo[1,2-b]pyridazin-3-yl)-N-(2-fluoro-3-hydroxy-3-methylbutyl)-4-((tetrahydro-2H-pyran-4-yl)amino)nicotinamide]
3 nM | 840 nM | 7.3 ×10⁻⁶ cm/s | – | CC[C@@H](C)Nc1cc(-c2cnn3cc(Cl)cnc23)ncc1C(=O)NC[C@@H](F)C(C)(C)O [Example 70, 4-(((R)-sec-butyl)amino)-6-(6-chloropyrazolo[1,5-a]pyrimidin-3-yl)-N—((R)-2-fluoro-3-hydroxy-3-methylbutyl)nicotinamide]
6 nM | – | 15.3 ×10⁻⁶ cm/s | 610 nM | CC(C)(O)[C@H](F)CNC(=O)c1cnc(-c2cnn3cc(Cl)cnc23)cc1NCCC(F)(F)F [Example 161, (R)-6-(6-chloropyrazolo[1,5-a]pyrimidin-3-yl)-N-(2-fluoro-3-hydroxy-3-methylbutyl)-4-((3,3,3-trifluoropropyl)amino)nicotinamide]
1 nM | 160 nM | 4.8 ×10⁻⁶ cm/s | – | CC(C)(O)CCNC(=O)c1cnc(-c2cnn3cc(Cl)cnc23)cc1Nc1cnn(CC(F)F)c1 [Example 253, 6-(6-chloropyrazolo[1,5-a]pyrimidin-3-yl)-4-((1-(2,2-difluoroethyl)-1H-pyrazol-4-yl)amino)-N-(3-hydroxy-3-methylbutyl)nicotinamide]
4 nM | 710 nM | 24.1 ×10⁻⁶ cm/s | – | C[C@@H](CF)Nc1cc(-c2cnn3cc(Cl)cnc23)ncc1C(=O)NC[C@@H](F)C(C)(C)O [Example 32, 6-(6-chloropyrazolo[1,5-a]pyrimidin-3-yl)-N—((R)-2-fluoro-3-hydroxy-3-methylbutyl)-4-(((S)-1-fluoropropan-2-yl)amino)nicotinamide]
20 nM | 720 nM | 7.4 ×10⁻⁶ cm/s | – | CC(C)(O)[C@H](F)CNC(=O)c1cnc(-c2cnn3cc(C#N)cnc23)cc1NC1CC1 [Example 92, (R)-6-(6-cyanopyrazolo[1,5-a]pyrimidin-3-yl)-4-(cyclopropylamino)-N-(2-fluoro-3-hydroxy-3-methylbutyl) nicotinamide]
2 nM | 420 nM | < 1.5 ×10⁻⁶ cm/s | – | CC(C)(O)[C@H](F)CNC(=O)c1cnc(-c2cnn3cc(Cl)cnc23)cc1NC1CCN(S(C)(=O)=O)CC1 [Example 68, (R)-6-(6-chloropyrazolo[1,5-a]pyrimidin-3-yl)-N-(2-fluoro-3-hydroxy-3-methylbutyl)-4-((1-(methylsulfonyl)piperidin-4-yl)amino) nicotinamide]
8 nM | 380 nM | < 1.5 ×10⁻⁶ cm/s | – | Cc1cc(Nc2cc(-c3cnn4cc(C#N)cnc34)ncc2C(=O)NC[C@@H](F)C(C)(C)O)n(C)n1 [Example 244, (R)-6-(6-cyanopyrazolo[1,5-a]pyrimidin-3-yl)-4-((1,3-dimethyl-1H-pyrazol-5-yl)amino)-N-(2-fluoro-3-hydroxy-3-methylbutyl)nicotinamide]
3 nM | – | 4.9 ×10⁻⁶ cm/s | 620 nM | CC(C)(O)[C@H](F)CNC(=O)c1cnc(-c2cnn3cc(Cl)cnc23)cc1NC1COCC1(F)F (single isomer, unassigned) [Example 19]
7 nM | 350 nM | 8.9 ×10⁻⁶ cm/s | – | Cc1cnn2c(-c3cc(NC(C)C)c(C(=O)NC[C@@H](F)C(C)(C)O)cn3)cnc2c1 [Example 148, (R)—N-(2-fluoro-3-hydroxy-3-methylbutyl)-4-(isopropylamino)-6-(7-methylimidazo[1,2-b]pyridazin-3-yl)nicotinamide]
18 nM | 2920 nM | < 1.5 ×10⁻⁶ cm/s | – | CC(C)Nc1cc(-c2cnn3cc(Cl)cnc23)ncc1C(=O)N[C@H]1CC[C@H](NC(=O)[C@H](C)O)CC1 [Example 49, 6-(6-chloropyrazolo[1,5-a]pyrimidin-3-yl)-N-((1S,4r)-4-((S)-2-hydroxypropanamido)cyclohexyl)-4-(isopropylamino)nicotinamide]
3 nM | 230 nM | 13.4 ×10⁻⁶ cm/s | – | CC(C)(O)[C@H](F)CNC(=O)c1cnc(-c2cnc3cc(Cl)cnn23)cc1NC1CC1 [Example 144, (R)-6-(7-chloroimidazo[1,2-b]pyridazin-3-yl)-4-(cyclopropylamino)-N-(2-fluoro-3-hydroxy-3-methylbutyl)nicotinamide]
3 nM | 80 nM | < 1.5 ×10⁻⁶ cm/s | – | CC(C)(O)[C@H](F)CNC(=O)c1cnc(-c2cnc3cc(C#N)cnn23)cc1Nc1cnn(CC(F)F)c1 [Example 260, (R)-6-(7-cyanoimidazo[1,2-b]pyridazin-3-yl)-4-((1-(2,2-difluoroethyl)-1H-pyrazol-4-yl)amino)-N-(2-fluoro-3-hydroxy-3-methylbutyl) nicotinamide]
4 nM | 700 nM | 3.7 ×10⁻⁶ cm/s | – | CC(C)(O)[C@H](F)CNC(=O)c1cnc(-c2cnc3cc(C#N)cnn23)cc1NC1CC(F)(F)C1 [Example 195, (R)-6-(7-cyanoimidazo[1,2-b]pyridazin-3-yl)-4-((3,3-difluorocyclobutyl)amino)-N-(2-fluoro-3-hydroxy-3-methylbutyl)nicotinamide]
6 nM | 700 nM | 4.8 ×10⁻⁶ cm/s | – | CC(C)Nc1cc(-c2cnn3cc(Cl)cnc23)ncc1C(=O)NCC(F)C1(O)COC1 (stereo not drawn) [Example 37, 6-(6-chloropyrazolo[1,5-a]pyrimidin-3-yl)-N-(2-fluoro-2-(3-hydroxyoxetan-3-yl)ethyl)-4-(isopropylamino)nicotinamide]
4 nM | 490 nM | 5.2 ×10⁻⁶ cm/s | – | CC(C)(O)[C@H](F)CNC(=O)c1cnc(-c2cnc3cc(Cl)cnn23)cc1NC1COC1 [Example 141, (R)-6-(7-chloroimidazo[1,2-b]pyridazin-3-yl)-N-(2-fluoro-3-hydroxy-3-methylbutyl)-4-(oxetan-3-ylamino)nicotinamide]
1 nM | 350 nM | 14.4 ×10⁻⁶ cm/s | – | CC(F)(F)Cn1cc(Nc2cc(-c3cnn4cc(Cl)cnc34)ncc2C(=O)NC[C@@H](F)C(C)(C)O)cn1 [Example 239, (R)-6-(6-chloropyrazolo[1,5-a]pyrimidin-3-yl)-4-((1-(2,2-difluoropropyl)-1H-pyrazol-4-yl)amino)-N-(2-fluoro-3-hydroxy-3-methylbutyl)nicotinamide]
8 nM | 880 nM | < 1.5 ×10⁻⁶ cm/s | – | CC(C)(O)c1cnc(Nc2cc(-c3cnn4cc(Cl)cnc34)ncc2C(=O)NC[C@@H](F)C(C)(C)O)s1 [Example 2, (R)-6-(6-chloropyrazolo[1,5-a]pyrimidin-3-yl)-N-(2-fluoro-3-hydroxy-3-methylbutyl)-4-((5-(2-hydroxypropan-2-yl)thiazol-2-yl)amino)nicotinamide]
5 nM | 220 nM | 2.1 ×10⁻⁶ cm/s | – | CC(C)(O)CCNC(=O)c1cnc(-c2cnc3cc(Cl)cnn23)cc1NC1COC1 [Example 218, 6-(7-chloroimidazo[1,2-b]pyridazin-3-yl)-N-(3-hydroxy-3-methylbutyl)-4-(oxetan-3-ylamino)nicotinamide]
4 nM | 210 nM | 4.5 ×10⁻⁶ cm/s | – | CC(C)(O)[C@H](F)CNC(=O)c1cnc(-c2cnc3cc(C#N)cnn23)cc1NCCC(F)(F)F [Example 205, (R)-6-(7-cyanoimidazo[1,2-b]pyridazin-3-yl)-N-(2-fluoro-3-hydroxy-3-methylbutyl)-4-((3,3,3-trifluoropropyl)amino)nicotinamide]
7 nM | 240 nM | 8.6 ×10⁻⁶ cm/s | – | CC(C)(O)[C@H](F)CNC(=O)c1cnc(-c2cnn3cc(C#N)cnc23)cc1N[C@@H]1CCC[C@@H]1F [Example 105, 6-(6-cyanopyrazolo[1,5-a]pyrimidin-3-yl)-N—((R)-2-fluoro-3-hydroxy-3-methylbutyl)-4-(((1R,2S)-2-fluorocyclopentyl)amino) nicotinamide]
2 nM | 240 nM | 12.3 ×10⁻⁶ cm/s | – | CC(C)Nc1cc(-c2cnc3cc(C#N)cnn23)ncc1C(=O)NC[C@@H](F)C(C)(C)O [Example 145, (R)-6-(7-cyanoimidazo[1,2-b]pyridazin-3-yl)-N-(2-fluoro-3-hydroxy-3-methylbutyl)-4-(isopropylamino)nicotinamide]
2 nM | 250 nM | 5.6 ×10⁻⁶ cm/s | – | CC(C)Nc1cc(-c2cnn3cc(C#N)cnc23)ncc1C(=O)NC[C@@H](F)C(C)(C)O [Example 87, (R)-6-(6-cyanopyrazolo[1,5-a]pyrimidin-3-yl)-N-(2-fluoro-3-hydroxy-3-methylbutyl)-4-(isopropylamino)nicotinamide]
1 nM | 300 nM | 2.6 ×10⁻⁶ cm/s | – | CC(C)(O)[C@H](F)CNC(=O)c1cnc(-c2cnn3cc(Cl)cnc23)cc1Nc1cnn(C2COC2)c1 [Example 48, (R)-6-(6-chloropyrazolo[1,5-a]pyrimidin-3-yl)-N-(2-fluoro-3-hydroxy-3-methylbutyl)-4-((1-(oxetan-3-yl)-1H-pyrazol-4-yl)amino)nicotinamide]
4 nM | 1600 nM | 8 ×10⁻⁶ cm/s | – | CC[C@@H](C)Nc1cc(-c2cnn3cc(C#N)cnc23)ncc1C(=O)NC[C@@H](F)C(C)(C)O [Example 97, 4-(((R)-sec-butyl)amino)-6-(6-cyanopyrazolo[1,5-a]pyrimidin-3-yl)-N—((R)-2-fluoro-3-hydroxy-3-methylbutyl)nicotinamide]
